Results reported in US20030220524A1, “Sulfur containing compounds” (priority 2000, published 2003).

Experiments:
[1] = test system: Aspergillus niger and Aspergillus flavus; test: Antifungal activity; assay type: cell-based; conditions: in words; dose not given
Procedure: Sulfur compounds were tested for antifungal activity against pure cultures of Aspergillus niger and Aspergillus flavus supplied by Ward's Natural Science Ltd (St. Catharines, Ontario, Canada). They were maintained on Sabouraud Dextrose Agar.
For the test, 6 agar plugs (5 mm diameter) were cut from a 5-8 day old colony and homogenized in distilled, sterilized water (2 ml). A portion of this suspension (0.5 ml) was transferred aseptically to a Petri plate with Sabouraud Dextrose Agar (15 ml) and spread evenly over the entire surface. Each plate was supplied with four evenly spaced paper disks (7 mm, Whatman Number 1 filter paper) containing the test compound (0, 25, 50 and 100 μg respectively). Each test compound was applied to the disks as a solution (50 mg compound/10 ml acetone). Control disks were treated with neat acetone (20 μl). Test plates with fungal homogenates and disks were incubated at 18-20° C. for 2 days. For each test four replicate plates were used. The diameter of the clear zone surrounding the disk was taken as the indicator of antifungal activity.

AML-3 leukemic cell line = test: TUNEL, flow cytometry; assay type: cell-based, human; set-up: unit: %; conditions: 48 h
Procedure: (§1) Adherent cell lines were plated at 35×10^4 cells/60 cm^2 dish the day before exposure to compound. Suspension cells were seeded at 25×10^4 cells/mL in a 6 well dish (Falcon) the day of exposure to compound. Mononucleated, T-cell depleted normal bone marrow cells were seeded at 50×10^4 cells/mL in a 6 well dish the day of exposure to compound. Cells were exposed to solvent control or approximate MTT50 and MTT30 concentrations of the compound. After 48 h of exposure to the compound, cells were harvested and fixed with a final concentration of 4% formaldehyde. Fixed cells were stored at −20° C. in 70% ethanol for no more than 5 days. Approximately 10^5 cells were pelleted and labeled with 0.02 mM Biotin-dUTP and 12.5 U TdT enzyme in a 1× reaction buffer (200 mM potassium cacodylate, 25 mM Tris-HCl, 25 μg/mL bovine serum albumin, pH 6.6), 2.5 mM CoCl2 and 0.01 mM dTTP (Roche Molecular Biochemicals, Laval, QC, Canada) for 45 min at 37° C. Samples were washed and incubated in 200 μL of 1:1000 fluorescein isothiocyanate (FITC)-conjugated avidin (Sigma) in 4×SSC, 5% skim milk powder and 0.05% Tween-20 (Sigma). Following 1 h of mixing at room temperature, the samples were washed and resuspended in 500 μL of D-PBS containing 2.5 μg/mL DNase-free RNase (Boehringer Mannheim) and 10 μg/mL PI. Following a 30 min incubation at room temperature, cells were analyzed using a XL-MCL flow cytometer (Coulter Corporation, Miami, Fla.) and a FACScalibar cytometer (Becton Dickinson, San Jose, Calif.). Profiles shown are representative of one experiment.
as §1, with “? s” for “Cells”, “appr ? nate” for “approximate”, “of” for “of the”, “Pl.” for “PI.”

leukemic cells = test: Cell cycle and apoptosis by fixed PI and TUNEL; assay type: cell-based, human; conditions: in words
Procedure: (§2) Adherent cell lines were plated at 35×10^4 cells/60 cm^2 dish the day before exposure to compound. Suspension cells were seeded at 25×10^4 cells/mL in a 6 well dish (Falcon) the day of exposure to compound. Mononucleated, T-cell depleted normal bone marrow cells were seeded at 50×10^4 cells/mL in a 6 well dish the day of exposure to compound. Cells were exposed to solvent control or approximate MTT50 and MTT30 concentrations of the compound. After 48 h of exposure to the compound, cells were harvested, fixed in 80% ethanol for 1 h on ice and labeled with 50 μg/mL propidium iodide (Sigma). Approximately 10^6 cells were analyzed using a XL-MCL flow cytometer (Coulter Corporation, Miami, Fla.) and a FACScalibar cytometer (Becton Dickinson, San Jose, Calif.). Profiles shown are a representative.
as §1

[2] = test system: WI38 non-transformed diploid fibroblasts; test: Fixed propidium iodide staining, flow cytometry; assay type: cell-based, human; conditions: 48 h
Procedure: as §2
as §2, with “cm2” for “cm^2”, “concentrations.” for “concentrations of the compound.”, “representative. Cell viability counts and Pi staining were performed as previously described (Dimitroulakos, J, Nohynek, D, Backway, K L, Hedley, D W, Yeger, H, Freedman, M H, Minden, M D and Penn, L Z: Increased sensitivity of acute myeloid leukemias to lovastatin-induced apoptosis: A potential therapeutic approach. Blood 93: 1308-18, 1999).” for “representative.”

KK leukemic cell line = test: Fixed propidium iodide staining, flow cytometry; assay type: cell-based, human; conditions: 48 h
Procedure: as §2
as §2, with “cm2” for “cm^2”, “concentrations.” for “concentrations of the compound.”, “representative. Cell viability counts and Pi staining were performed as previously described (Dimitroulakos, J, Nohynek, D, Backway, K L, Hedley, D W, Yeger, H, Freedman, M H, Minden, M D and Penn, L Z: Increased sensitivity of acute myeloid leukemias to lovastatin-induced apoptosis: A potential therapeutic approach. Blood 93: 1308-18, 1999).” for “representative.”

[3] = dose 50 uM (229 ug/mL) as printed

COC(=O)CSSC [H, methyl 3,4-dithiopentanoate]
Antifungal activity [1]: do not possess antifungal activity | TUNEL FITC +ve (AML-3 leukemic cell line; dose 65.7 uM (10 ug/mL)): 10.2 | Cell cycle effect / apoptosis of leukemic cells (fixed PI and TUNEL) (leukemic cells): accumulation of leukemic cells in the G2/M phase of the cell cycle prior to the cells undergoing apoptosis | % pre-G1 (Fixed PI) ([2]; dose 985 uM (150 ug/mL)): 0.7% | % pre-G1 (Fixed PI) (KK leukemic cell line; dose 133.4 uM (20 ug/mL)): 5.9%

CSCSCS(C)(=O)=O [B]
Antifungal activity [1]: do not possess antiproliferative activity on either fungal or mammalian cells | TUNEL FITC +ve (AML-3 leukemic cell line; dose 107 uM (20 ug/mL)): 3.85 | % pre-G1 (Fixed PI) (KK leukemic cell line; dose 107 uM (20 ug/mL)): 1.1%

CSSc1ccc([N+](=O)[O-])cc1 [M, methyl p-nitrophenyl disulphide]
% pre-G1 (Fixed PI) ([2]; dose 40 uM): 16% | % pre-G1 (Fixed PI) ([2]; dose 120 uM as printed): 119%

CSSCC(=O)c1ccccc1 [Compound P, phenacyl methyl disulphide]
% pre-G1 (Fixed PI) ([2]; dose 50 uM): 2% | % pre-G1 (Fixed PI) ([2]; dose 150 uM): 52%

CS(C)(=O)=O [Compound A, dimethyl sulfone]
Antifungal activity [1]: do not possess antiproliferative activity on either fungal or mammalian cells | % pre-G1 (Fixed PI) (KK leukemic cell line; dose 212 uM (20 ug/mL)): 1.1%

c1ccc(SSc2ccccc2)cc1 [D, diphenyl disulphide]
Antifungal activity [1]: do not possess antifungal activity | Cell cycle effect / apoptosis of leukemic cells (fixed PI and TUNEL) (leukemic cells): undergo apoptosis in all the phases of the cell cycle | % pre-G1 (Fixed PI) (KK leukemic cell line; dose 91.6 uM (20 ug/mL)): 33.9%

CSSCOC(C)=O [I, 2,3-dithiabutyl acetate]
Antifungal activity [1]: possess antifungal and anti-mammalian cell activity | TUNEL FITC +ve (AML-3 leukemic cell line; dose 32.8 uM (5 ug/mL)): 57.3 | Cell cycle effect / apoptosis of leukemic cells (fixed PI and TUNEL) (leukemic cells): undergo apoptosis in all the phases of the cell cycle | % pre-G1 (Fixed PI) (KK leukemic cell line; dose 65.7 uM (10 ug/mL)): 48.4%

CSSCS(=O)(=O)c1ccc(C)cc1 [Compound C, α-p-toluenesulfonyl dimethyl disulphide]
Antifungal activity [1]: possess antifungal and anti-mammalian cell activity | TUNEL FITC +ve (AML-3 leukemic cell line; dose 20.2 uM (10 ug/mL)): 22.4 | Cell cycle effect / apoptosis of leukemic cells (fixed PI and TUNEL) (leukemic cells): undergo apoptosis in all the phases of the cell cycle | % pre-G1 (Fixed PI) (KK leukemic cell line; dose 40.3 uM (20 ug/mL)): 20.6%

CCC(=O)OCSSc1ccccc1 [Compound Q, 1-phenyl-1,2-dithiapropyl propionate]
Antifungal activity [1]: potent antifungal compound | % G2 increase (Fixed PI) ([2]; dose 20 uM): +3% | % pre-G1 (Fixed PI) ([2]; dose 20 uM): 1% | % G2 increase (Fixed PI) ([2]; dose 40 uM): +10% | % pre-G1 (Fixed PI) ([2]; dose 40 uM): 1% | % pre-G1 (Fixed PI) (KK leukemic cell line; dose 20 uM): 15% | % G2 increase (Fixed PI) (KK leukemic cell line; dose 40 uM): −4% | % pre-G1 (Fixed PI) (KK leukemic cell line; dose 40 uM): 43%

CSSCCS(C)(=O)=O [F, 2,3,6-trithiaheptane 6,6,-dioxide]
Antifungal activity [1]: do not possess antifungal activity | TUNEL FITC +ve (AML-3 leukemic cell line; dose 45.8 uM (10 ug/mL)): 31.9 | Cell cycle effect / apoptosis of leukemic cells (fixed PI and TUNEL) (leukemic cells): accumulation of leukemic cells in the G2/M phase of the cell cycle prior to the cells undergoing apoptosis | % G2/M (Fixed PI) [2, 3]: 17.8% | % pre-G1 (Fixed PI) [2, 3]: 0.1% | % pre-G1 (Fixed PI) (KK leukemic cell line; dose 91.6 uM (20 ug/mL)): 3.8%

CSCSSC [Compound N, 2,3,5-trithiahexane]
% G2 increase (Fixed PI) ([2]; dose 50 uM): +7% | % pre-G1 (Fixed PI) ([2]; dose 50 uM): 2% | % G2 increase (Fixed PI) ([2]; dose 150 uM): +25% | % pre-G1 (Fixed PI) ([2]; dose 150 uM): 4% | % G2 increase (Fixed PI) (KK leukemic cell line; dose 50 uM): +4% | % pre-G1 (Fixed PI) (KK leukemic cell line; dose 50 uM): 13% | % G2 increase (Fixed PI) (KK leukemic cell line; dose 150 uM): +5% | % pre-G1 (Fixed PI) (KK leukemic cell line; dose 150 uM): 10%

CS(=O)(=O)CSSc1ccccc1 [E, 5-phenyl-2,4,5-trithiapentane 2,2-dioxide]
Antifungal activity [1]: possess antifungal and anti-mammalian cell activity | Cell cycle effect / apoptosis of leukemic cells (fixed PI and TUNEL) (leukemic cells): undergo apoptosis in all the phases of the cell cycle | % pre-G1 (Fixed PI) (KK leukemic cell line; dose 85.3 uM (20 ug/mL)): 34.7%

CS(=O)(=O)CSCS(C)(=O)=O [G, 2,4,6-trithiaheptane 2,2,6,6-tetraoxide]
Antifungal activity [1]: do not possess antiproliferative activity on either fungal or mammalian cells | TUNEL FITC +ve (AML-3 leukemic cell line; dose 45.8 uM (10 ug/mL)): 3.0 | % pre-G1 (Fixed PI) (KK leukemic cell line; dose 91.6 uM (20 ug/mL)): 3.8%
